10 molecules from US9206183B2, “Substituted pyrazolo[1,5-a]pyridines as JAK inhibitors” (ALMIRALL, S.A., priority 2010, dated 2015) can be followed below.

Structures are written as SMILES. Some results are limits rather than exact numbers.

Holding throughout (assay type): biochemical
One assay deals with T1, human JAK2 (aa 826-1132) (Homo sapiens, UniProt O60674).
T1 construct: JAK2 (aa 826-1132); GST (N); purchased Carna Biosciences; host or cells: baculovirus expression system
Nature of the assay: In vitro JAK kinase assay (TR-FRET), JAK2. The conditions noted are these: catalytic domain GST-fusion; ATP 0.2 μM; peptide 20 nM; 30 minutes at room temperature. The protocol:
(§1) Compounds were screened for their ability to inhibit JAK1, JAK2 and JAK3 using the assays as indicated below.
(§2) The catalytic domains of human JAK1 (aa 850-1154), JAK2 (aa 826-1132), JAK3 (aa 795-1124) and Tyk2 (aa 871-1187) were expressed as N-terminal GST-fusion proteins using a baculovirus expression system and were purchased from Carna Biosciences. The enzymatic activity was assayed using as substrate a biotinylated peptide, poly (GT)-Biotin (CisBio). The peptide concentration in the reactions was 60 nM for JAK1, 20 nM for JAK2, 140 nM for JAK3 and 50 nM for Tyk2. The degree of phosphorylation was detected by TR-FRET (time-resolved fluorescence energy transfer). IC50s of compounds were measured for each kinase in a reaction mixture containing the enzyme, ATP and the peptide in 8 mM MOPS (pH 7.0), 10 mM MgCl2, 0.05% β-mercaptoethanol, 0.45 mg/ml BSA. The ATP concentration in the reactions was 3 μM for JAK1, 0.2 μM for JAK2, 0.6 μM for JAK3 and 1.8 μM for Tyk2. The enzymatic reactions took place for 30 minutes at room temperature. Then, the reactions were stopped with 20 μL of quench detection buffer (50 mM HEPES, 0.5 M KF, EDTA 0.25 M, 0.1% (w/v) BSA, pH 7.5) containing 0.115 μg/mL of anti-phosphoTyr (PT66)-Cryptate (CisBio) and a variable concentration of SA-XL665 (CisBio) to keep the SA-B ratio constant. Incubate for 3 h and read on Victor 2V spectrofluorometer (PerkinElmer) set to read fluorescence resonance energy transfer.
(In general: Time-resolved FRET reads energy transfer from a long-lived donor to a nearby acceptor.)

The target of a further assay is T2, human JAK3 (aa 795-1124) (Homo sapiens, UniProt P52333).
T2 construct: JAK3 (aa 795-1124); GST (N); purchased Carna Biosciences; host or cells: baculovirus expression system
The assay can be described thus: In vitro JAK kinase assay (TR-FRET), JAK3. The note with it: catalytic domain GST-fusion; ATP 0.6 μM; peptide 140 nM; 30 minutes at room temperature. The protocol: as §1, §2

In a further assay the target is T3, human JAK1 (aa 850-1154) (Homo sapiens, UniProt P23458).
T3 construct: human JAK1 (aa 850-1154); GST (N); purchased Carna Biosciences; host or cells: baculovirus expression system
Nature of the assay: In vitro JAK kinase assay (TR-FRET), JAK1. The conditions noted are these: catalytic domain GST-fusion; ATP 3 μM; peptide 60 nM; 30 minutes at room temperature. How it is done:
as §1, §2

T3 sequence (P23458 850-1154): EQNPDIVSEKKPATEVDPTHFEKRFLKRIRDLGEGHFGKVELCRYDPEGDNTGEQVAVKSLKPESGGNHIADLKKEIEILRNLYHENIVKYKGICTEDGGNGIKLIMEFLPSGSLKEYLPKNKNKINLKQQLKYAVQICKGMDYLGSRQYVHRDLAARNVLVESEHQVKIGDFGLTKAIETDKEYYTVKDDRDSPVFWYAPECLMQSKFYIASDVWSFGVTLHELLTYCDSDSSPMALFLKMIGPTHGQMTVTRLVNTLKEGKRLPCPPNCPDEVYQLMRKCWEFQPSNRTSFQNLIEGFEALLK
T2 sequence (P52333 795-1124): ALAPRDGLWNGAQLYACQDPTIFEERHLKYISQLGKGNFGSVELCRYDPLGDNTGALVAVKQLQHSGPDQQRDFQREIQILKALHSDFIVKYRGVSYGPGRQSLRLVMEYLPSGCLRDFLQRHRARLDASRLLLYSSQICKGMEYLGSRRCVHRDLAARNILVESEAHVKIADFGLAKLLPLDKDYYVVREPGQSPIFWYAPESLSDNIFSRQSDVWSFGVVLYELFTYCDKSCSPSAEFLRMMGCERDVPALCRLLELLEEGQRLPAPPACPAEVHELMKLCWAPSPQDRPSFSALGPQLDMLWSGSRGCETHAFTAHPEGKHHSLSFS
T1 sequence (O60674 826-1132): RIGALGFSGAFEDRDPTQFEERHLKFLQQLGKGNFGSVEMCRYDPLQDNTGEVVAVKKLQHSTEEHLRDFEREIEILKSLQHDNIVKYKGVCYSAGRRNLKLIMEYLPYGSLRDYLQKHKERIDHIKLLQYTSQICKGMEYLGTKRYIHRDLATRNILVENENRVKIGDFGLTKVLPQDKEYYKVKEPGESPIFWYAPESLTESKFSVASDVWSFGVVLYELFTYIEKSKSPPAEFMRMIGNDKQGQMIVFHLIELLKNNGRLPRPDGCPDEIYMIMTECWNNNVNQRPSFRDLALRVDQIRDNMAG

As to `COC[C@H](C)Nc1ccnc(-c2cnn3ccc(C#N)cc23)n1` [Example 5, 3-(4-{[(1S)-2-Methoxy-1-methylethyl]amino}pyrimidin-2-yl)pyrazolo[1,5-a]pyridine-5-carbonitrile], the IC50 (usually the concentration that inhibits the measured activity by half) is less than 100 nM against human JAK2 (aa 826-1132), less than 100 nM against human JAK3 (aa 795-1124) and 100 to 1000 nM against human JAK1 (aa 850-1154).
As for `N#Cc1ccn2ncc(-c3nccc(NCC(F)(F)F)n3)c2c1` [Example 7, 3-{4-[(2,2,2-Trifluoroethyl)amino]pyrimidin-2-yl}pyrazolo[1,5-a]pyridine-5-carbonitrile], the IC50 is less than 100 nM at human JAK2 (aa 826-1132), 100 to 1000 nM at human JAK3 (aa 795-1124) and greater than 1000 nM on human JAK1 (aa 850-1154).
Take `N#CCC(=O)N1CCC[C@@H](Nc2ccnc(-c3cnn4ccc(C#N)cc34)n2)C1` [Example 14, 3-(4-{[(3R)-1-(Cyanoacetyl)piperidin-3-yl]amino}pyrimidin-2-yl)pyrazolo[1,5-a]pyridine-5-carbonitrile]: the half-inhibitory concentration (IC50) on human JAK2 (aa 826-1132) is less than 100 nM; against human JAK3 (aa 795-1124) it was less than 100 nM; against human JAK1 (aa 850-1154) it was 100 to 1000 nM.
As to `N#Cc1ccn2ncc(-c3nccc(N[C@H]4CC[C@H](O)CC4)n3)c2c1` [Example 19, 3-(4-((Trans)-4-Hydroxycyclohexylamino)pyrimidin-2-yl)pyrazolo[1,5-a]pyridine-5-carbonitrile], the values for the IC50 against human JAK2 (aa 826-1132), against human JAK3 (aa 795-1124) and against human JAK1 (aa 850-1154) were less than 100 nM, less than 100 nM and 100 to 1000 nM, respectively.
Consider `C[C@H](Nc1ccnc(-c2cnn3ccncc23)n1)c1ccccc1` [Example 21, (S)—N-(1-phenylethyl)-2-(pyrazolo[1,5-a]pyrazin-3-yl)pyrimidin-4-amine], for which the half-inhibitory concentration (IC50) against human JAK2 (aa 826-1132), on human JAK3 (aa 795-1124) and against human JAK1 (aa 850-1154) was less than 100 nM each time.
Take `N#Cc1ccc(N2CCC[C@@H](Nc3ccnc(-c4cnn5ccncc45)n3)C2)nc1` [Example 25, 6-{(3R)-3-[(2-Pyrazolo[1,5-a]pyrazin-3-ylpyrimidin-4-yl)amino]piperidin-1-yl}nicotinonitrile]: the IC50 against human JAK2 (aa 826-1132) is less than 100 nM; against human JAK3 (aa 795-1124) it was less than 100 nM; against human JAK1 (aa 850-1154) it was 100 to 1000 nM.
`CN(c1ccnc(-c2cnn3ccncc23)n1)[C@@H]1CCCN(C(=O)CC#N)C1` [Example 27, 3-{(3R)-3-[Methyl(2-pyrazolo[1,5-a]pyrazin-3-ylpyrimidin-4-yl)amino]piperidin-1-yl}-3-oxopropanenitrile]: the results for the IC50 on human JAK2 (aa 826-1132), against human JAK3 (aa 795-1124) and against human JAK1 (aa 850-1154) were less than 100 nM, less than 100 nM and 100 to 1000 nM, respectively.
For `O=C(CC(F)(F)F)N1CCC[C@@H](Nc2nc(-c3cnn4ccncc34)ncc2F)C1` [Example 30, 5-Fluoro-2-pyrazolo[1,5-a]pyrazin-3-yl-N-[(3R)-1-(3,3,3-trifluoropropanoyl)piperidin-3-yl]pyrimidin-4-amine], the half-inhibitory concentration (IC50) is less than 100 nM against human JAK2 (aa 826-1132), less than 100 nM at human JAK3 (aa 795-1124) and 100 to 1000 nM against human JAK1 (aa 850-1154).
Consider `Nc1cnc(-c2cnn3ccncc23)nc1NC1CCOCC1` [Example 35, 2-(Pyrazolo[1,5-a]pyrazin-3-yl)-N^4-(tetrahydro-2H-pyran-4-yl)pyrimidine-4,5-diamine], for which the half-inhibitory concentration (IC50) at human JAK2 (aa 826-1132) is less than 100 nM; at human JAK3 (aa 795-1124), 100 to 1000 nM; on human JAK1 (aa 850-1154) it was 100 to 1000 nM.
For `C[C@H](Nc1nc(-c2cnn3ccncc23)ncc1Cl)c1ccc(F)cn1` [Example 37, (S)-5-Chloro-N-(1-(5-fluoropyridin-2-yl)ethyl)-2-(pyrazolo[1,5-a]pyrazin-3-yl)pyrimidin-4-amine], the IC50 at human JAK2 (aa 826-1132), against human JAK3 (aa 795-1124) and against human JAK1 (aa 850-1154) was less than 100 nM each time.
